Assay results: USRE39420E1, “1,2-Diphenylpyrrole derivatives, their preparation and their therapeutic uses” (Sankyo Company, Limited, priority 1996, dated 2006)

Tests used:
[1] = system: Carrageenan-induced Paw Edema in rats; assay: Carrageenan-induced paw edema test; format: in vivo, Wistar-Imamichi rats; details: Rattus norvegicus, oral, 3 hours after carrageenan, read-out: Inhibition Rate (%)
Experimental: The same test compounds were subjected to the test as those in the Randall-Selitto test of Experiment 3. Wistar-Imamichi rats (males, 6 week old, body weights: 110-120 g) were used in this test.
The method of Winter, et al. [Proc. Soc. Exp. Biol. Med. 111, 544-547, (1962)] was slightly modified to perform the test [Sankyo Annual Research Report 39, 77-111, (1989)]. The rats were fasted for 16 hours prior to use. Inflammatory edema was induced by the subcutaneous injection of 0.05 ml of a 1% carrageenan (Viscarin 402) solution into the right hind paw of the animal. The test compounds were administered orally 30 minutes before injection of carrageenan. The volume of the right hind foot was measured with a Plethysmometer (Trade mark) (Ugo-Basile Co.) just before administration of the test compound and 3 hours after injection of carrageenan to determine the edema intensity [(right foot volume after 3 hours/right foot volume before injection)-1].

[2] = system: yeast-inflamed pain in rats; assay: Analgesic effect on yeast-inflamed pain in rats (Randall-Selitto method); format: in vivo, Wistar-Imamichi rats; details: Rattus norvegicus, oral, pain threshold 0.5, 1 and 2 hours after administration, read-out: Efficacy Rate (No. of animals in which drug was effective/No. of animals used in test) (converted)
Experimental: The compound was suspended in 0.5%tragacanth and administered orally at a volume of 5 ml/kg. The control group was administered with 0.5% tragacanth only as a vehicle.
Wistar-Imamichi rats (males, 5 week old, body weights: 80-100 g) were used in this test.
The test was conducted in accordance with the method of Winter and Flataker [J. Pharmacol. Exp. Ther. 150, 165-171, (1965)], which is a modification of the original method of Randall and Selitto [Arch. Int. Pharmacodyn. Ther. 111, 405-419, (1957)]. The rats were fasted for 16 hours prior to use. Inflammation was induced by subcutaneous injection of 0.1 ml of a suspension of 20% beer yeast (Sigma) into the right hind footpad of the animal. After 4.5 hours, increasing pressure was applied to the inflamed footpad at a constant speed using an Analgesy meter (Trade mark) (Ugo-Basile Co.).
First the average of pain threshold values at each time point (0.5, 1, and 2 hr) was calculated in a control group. If a pain threshold value exceeded 2 times the control average value at the same time point even once in the drug-treated groups, then the animal was considered to indicate efficacy. Efficacy rates of the drug were estimated by the evaluation method of Blake [J. Pharm. Pharm. 19, 367-373, (1967)].

gastric mucosa = assay: Irritative effect on gastric mucosa; format: in vivo, Wistar rats; details: oral; dose producing 50% incidence of gastric ulcers, 3.5 hours after dosing
Experimental: Experiments were performed according to the method described by Jahn and Adrian [Arzneim.-Forsch. 19, 36, (1969)]. Male Wistar rats weighing approximately 120 g were fasted for 16 hours before the experiment. The drugs were administered orally to rats as described in Experiment 3. Three and the half hours after dosing, the animals were killed under ether-anesthesia and the stomachs were placed into 1% of formalin. The stomach was opened by cutting along the greater curvature and the number and length of lesions were counted under a microscope (6.3×10). The ulcerogenicity in each animal was assessed according to Hitchens et. al. [Pharmacologist 9, 242, (1967)]. Incidence was determined as the rate of rats with 4 or more ulcers of more than 0.5 mm length, and UD50's (doses producing 50% incidence) were calculated from the incidence and the dose by probit (=probability unit) method.

SMILES	inhibition in vivo at 50 mg/kg [1] [%]	responders at 12.5 mg/kg [2] [%]	UD50 (gastric mucosa) [mg/kg]
Cc1ccc(-c2c(C)ccn2-c2ccc(S(N)(=O)=O)cc2)cc1 [Example 17, 3-Methyl-2-(4-methylphenyl)-1-(4-sulfamoylphenyl) pyrrole]	67		
Cc1ccc(-c2cc(C)cn2-c2ccc(S(N)(=O)=O)cc2)cc1 [Example 18, 4-Methyl-2-(4-methylphenyl)-1-(4-sulfamoylphenyl) pyrrole]	53	100	
NS(=O)(=O)c1ccc(-c2cccn2-c2ccc(F)cc2)cc1 [Example 19, 1-(4-Fluorophenyl)-2-(4-sulfamoylphenyl)pyrrole]	65	100	
CCc1cc(-c2ccc(OC)cc2)n(-c2ccc(S(N)(=O)=O)cc2)c1 [Example 64, 4-Ethyl-2-(4-methoxyphenyl)-1-(4-sulfamoylphenyl) pyrrole]	60		
CSc1ccc(-c2cc(C)cn2-c2ccc(S(N)(=O)=O)cc2)cc1 [Example 66, 4-Methyl-2-(4-methylthiophenyl)-1-(4-sulfamoylphenyl)pyrrole]		100	>100
COc1ccc(-c2cc(C)cn2-c2ccc(S(N)(=O)=O)cc2)cc1C [Example 69, 4-Methyl-2-(4-methoxy-3-methylphenyl)-1-(4-sulfamoylphenyl)pyrrole]	55	100	>100
Cc1cc(-c2ccc(Cl)c(Cl)c2)n(-c2ccc(S(N)(=O)=O)cc2)c1 [Example 70, 2-(3,4-Dichlorophenyl)-4-methyl-1-(4-sulfamoylphenyl)pyrrole]			>100
COc1ccc(-c2cc(C)cn2-c2ccc(S(N)(=O)=O)cc2)cc1F [Example 71, 2-(3-Fluoro-4-methoxylphenyl)-4-methyl-1-(4-sulfamoylphenyl)pyrrole]		100	>100
Cc1cc(-c2ccc(S(N)(=O)=O)cc2)n(-c2ccc(F)cc2F)c1 [Example 75, 1-(2,4-Difluorophenyl)-4-methyl-2-(4-sulfamoylphenyl)pyrrole]	57		
COc1ccc(-c2cccn2-c2ccc(S(N)(=O)=O)cc2)cc1 [Example 76, 2-(4-Methoxyphenyl)-1-(4-sulfamoylphenyl)pyrrole]	56		>100
Cc1cc(-c2ccccc2)n(-c2ccc(S(N)(=O)=O)cc2)c1 [Example 77, 4-Methyl-2-phenyl-1-(4-sulfamoylphenyl)pyrrole]			>100
COc1ccc(-c2cc(C)cn2-c2ccc(S(N)(=O)=O)cc2)cc1Cl [Example 79, 2-(3-Chloro-4-methoxyphenyl)-4-methyl-1-(4-sulfamoylphenyl)pyrrole]		100	>100
COc1ccc(-c2cc(C)cn2-c2ccc(S(=O)(=O)NC(C)=O)cc2)cc1 [Example 82, 1-(4-Acetylaminosulfonylphenyl)-2-(4-methoxyphenyl)-4-methylpyrrole]	78	100	>100
CC(=O)NS(=O)(=O)c1ccc(-n2cc(C)cc2-c2ccc(C)c(C)c2)cc1 [Example 83, 1-(4-Acetylaminosulfonylphenyl)-2-(3,4-dimethylphenyl)-4-methylpyrrole]	70	100	
CCSc1ccc(-n2cc(C)cc2-c2ccc(S(N)(=O)=O)cc2)cc1 [Example 85, 1-(4-Ethylthiophenyl)-4-methyl-2-(4-sulfamoylphenyl)pyrrole]	73	100	
Cc1cc(-c2ccc(S(N)(=O)=O)cc2)n(-c2ccc(C)c(C)c2)c1 [Example 86, 4-Methyl-1-(3,4-dimethylphenyl)-2-(4-sulfamoylphenyl)pyrrole]	64	100	
Cc1cc(C)cc(-c2cc(C)cn2-c2ccc(S(N)(=O)=O)cc2)c1 [Example 87, 4-Methyl-2-(3,5-dimethylphenyl)-1-(4-sulfamoylphenyl)pyrrole]		100	
CSc1ccc(-c2c(C)ccn2-c2ccc(S(N)(=O)=O)cc2)cc1 [Example 88, 3-Methyl-2-(4-methylthiophenyl)-1-(4-sulfamoylphenyl)pyrrole]	61	100	
Cc1cc(-c2ccc(S(N)(=O)=O)cc2)n(-c2ccc([S+](C)[O-])cc2)c1 (centres unmarked) [Example 96, 4-Methyl-1-(4-methylsulfinylphenyl)-2-(4-sulfamoylphenyl)pyrrole]	60		
COc1ccc(-n2c(Cl)ccc2-c2ccc(S(N)(=O)=O)cc2)cc1 [Example 97, 5-Chloro-1-(4-methoxyphenyl)-2-(4-sulfamoylphenyl)pyrrole]	63	100	
COc1ccc(-n2c(Br)ccc2-c2ccc(S(N)(=O)=O)cc2)cc1 [Example 98, 5-Bromo-1-(4-methoxyphenyl)-2-(4-sulfamoylphenyl)pyrrole]	55		
COc1ccc(-n2c(-c3ccc(S(N)(=O)=O)cc3)cc(C)c2Cl)cc1 [Example 99, 5-Chloro-1-(4-methoxyphenyl)-4-methyl-2-(4-sulfamoylphenyl)pyrrole]	57		
CCOc1ccc(-n2c(Cl)ccc2-c2ccc(S(N)(=O)=O)cc2)cc1 [Example 100, 5-Chloro-1-(4-ethoxyphenyl)-2-(4-sulfamoylphenyl) pyrrole]	57	100	
CSc1ccc(-n2c(Cl)ccc2-c2ccc(S(N)(=O)=O)cc2)cc1 [Example 101, 5-Chloro-1-(4-methylthiophenyl)-2-(4-sulfamoylphenyl)pyrrole]		100	
Cc1cc(-c2ccc(S(N)(=O)=O)cc2)n(-c2ccc(S)cc2)c1 [Example 129, 1-(4-Mercaptophenyl)-4-methyl-2-(4-sulfamoylphenyl)pyrrole]	62	100	
CC(=O)Sc1ccc(-n2cc(C)cc2-c2ccc(S(N)(=O)=O)cc2)cc1 [Example 130, 1-(4-Acetylthiophenyl)-4-methyl-2-(4-sulfamoylphenyl)pyrrole]	73	20	
